Measurements reported in US20240309015A1, “Methods for the Treatment of Fibrotic Disease” (SHY Therapeutics, LLC, priority 2021, published 2024).

Columns and labels:
Smad2/3 phosphorylation = test: Phospho-Smad2/3 Inhibition Assay in PANC-1; format: cell-based; details: Homo sapiens; 10 μM compound, 3 h; TGF-b1 stimulated PANC-1; western blot; read-out: % inh of Smad2/3 phosphorylation in PANC-1
Procedure: Cell lines: Human tumor-derived pancreatic cancer cell line Panc-1 and mouse muscle myoblast C2C12 were purchased from American Type Culture Collection and grown in complete DMEM-High Glucose, supplemented with penicillin (100 U/mL), streptomycin (100 μg/mL), and 10% heat-inactivated FBS at 37° C. in a humidified incubator with 5% CO2.
Method: Cells were plated at 350000 cells/well density in a 12-well plate, allowed 3 hours to adhere to the plate, then starved in the appropriate medium in the presence of 0.5% FBS overnight. The small molecules to be tested were added to the cells in the final concentration of 10 μM in the presence of 0.3% DMSO for 3 hours incubation at 37° C. For IC50 value determination, serial dilutions of compounds were added to cells under the same conditions. Next, Panc-1 cells were stimulated with 10 ng/ml TGF-b1 for 1 hour, and C2C12 cells were stimulated with 10 ng/ml TGF-b1 for 20 minutes (recombinant human TGF-b1, R&D Systems). After stimulation cells were lysed with lysis buffer containing 1% Triton X-100, EDTA, and Halt™ Protease & Phosphatase Inhibitor Cocktail (Thermo Scientific). Protein concentration was assessed by BCA protein assay (Thermo Scientific). Phosphorylation level of Smad2/Smad3 was determined by western blot.
Western blot protocol: Equal amounts of protein (15-50 μg) were separated by SDS-PAGE and transferred to nitrocellulose membranes (Invitrogen by Thermo Fisher Scientific). The membrane was stained with Ponceau S Stain (Boston BioProducts) to verify uniform protein loading. Membranes were blocked with 10% milk and phosphorylation levels of Smad2/Smad3 were assessed by incubating overnight at 4° C. with the following antibodies: Phospho-Smad2 (Ser465/467) and Phosph-Smad3 (Ser423/425), both from Cell Signaling Technology. Then the membranes were incubated with HRP-conjugated secondary antibody (Jackson Immunoresearch, West Grove, PA). Bands were incubated in Amersham ECL Prime Western Blotting Detection Reagent (GE Healthcare) and visualized using the ChemiDoc MP imaging system (Bio-Rad).

KRas wild type = test: Ras GTP Binding Domain Inhibition Assay, KRas wild type; details: at 20 μM; for KRas wild type + SOS: % inh.: with SOS; for KRas wild type: % inh.: without SOS
Procedure: (§1) A Ras Superfamily Activity Assay (as disclosed in International Application No. PCT/US2018/038613, filed Jun. 20, 2018, which is incorporated by reference in its entirety) was used as a specific assay to evaluate compounds against the following for the following Ras Superfamily proteins: KRas wild type, KRas Q61H mutant, KRas G12C mutant, KRas G12D mutant, Rac-1, and Rho-A.
(§2) Buffer-I: • 25 mM Tris-HCl, pH 7.4 • 27 mM KCl • 137 mM NaCl • 1 mM MgCl2 • 1 mM DTT
(§3) Buffer-IL: • 50 mM Tris-HCl, pH 7.0 • 1 mM MgCl2 • 1 mM DTT
(§4) The small GTPases proteins: KRas wild type. KRas Q61H mutant, KRas G12C mutant, KRas G12D mutants, Rac-1, and Rho-A were expressed as His-tagged proteins. In addition, the Guanosine nucleotide Exchange Factor (GEF) Sos protein (residues 556-1049) was expressed as a His-tagged protein. In cells, the guanine nucleotide exchange factor Sos protein promotes activation of Ras proteins by stimulating an exchange of GDP for GTP. The inclusion of Sos to the Ras GTP binding domain inhibition assay may be considered as an alternative representation of physiological cellular conditions for evaluating the inhibitory activity of some of the tested small molecules.
(§5) For the assay, all purified small GTPases proteins were diluted in Buffer-I or Buffer-II to a final concentration of 10-30 μg/mL. 200 μL of each diluted protein was added to a nickel-coated 96-well plate and incubated overnight at 4° C. Then the protein solution was discarded and 200 μL of Buffer-I or Buffer-II was added to each well in the presence of 1% DMSO. Compounds to be tested were added to the protein-coated wells at final concentration of 20 μM, and incubated for 3 hours at room temperature with and without 10-30 μg/mL of Sos added to the final hour of the incubation. When performing IC50 measurements a serial dilution of all tested concentrations was added. Then Cy3-GTP or Cy5-GTP was added to each well to a final concentration of 100 nM. The labeled GTP was incubated for 45 minutes at room temperature. Following GTP incubation, wells were washed 3× in Buffer-I or Buffer-II and 200 μL of Buffer-I or Buffer-II was added to each well. Following washes, the amount of bound labeled-GTP was measured using a SpectraMax M3 (Molecular Devices).

KRas G12D mutant = test: Ras GTP Binding Domain Inhibition Assay, KRas G12D mutant; details: at 20 μM; for KRas G12D mutant + SOS: % inh.: with SOS; for KRas G12D mutant: % inh.: without SOS
Procedure: as §1, §2, §3, §4, §5

KRas G12C mutant = test: Ras GTP Binding Domain Inhibition Assay, KRas G12C mutant; details: at 20 μM; for KRas G12C mutant + SOS: % inh.: with SOS; for KRas G12C mutant: % inh.: without SOS
Procedure: as §1, §2, §3, §4, §5

Rho-A = test: Ras GTP Binding Domain Inhibition Assay, Rho-A; details: at 20 μM; without SOS
Procedure: as §1, §2, §3, §4, §5

IL-6 = test: Mouse IL6 Quantification Assay (LPS-stimulated RAW 264.7); format: cell-based; design: dose or concentration left out as unconfirmed; details: RAW264.7, ELISA, read-out: IL-6: % inh.
TNFα = test: Mouse TNF Alpha Quantification Assay (LPS-stimulated RAW 264.7); format: cell-based; design: dose or concentration left out as unconfirmed; details: RAW264.7, ELISA, read-out: TNFα: % inh.

SMILES | inhibition at 10 µM (Smad2/3 phosphorylation) [%] | KRas wild type + SOS: % inh. (KRas wild type) | KRas wild type: % inh. (KRas wild type) | KRas G12D mutant + SOS: % inh. (KRas G12D mutant; Table 7) | KRas G12D mutant + SOS: % inh. (KRas G12D mutant; Table 8) | KRas G12D mutant: % inh. (KRas G12D mutant; Table 7) | KRas G12D mutant: % inh. (KRas G12D mutant; Table 8) | KRas G12C mutant + SOS: % inh. (KRas G12C mutant) | KRas G12C mutant: % inh. (KRas G12C mutant) | Rho-A: % inh. (Rho-A) | inhibition (IL-6) [%] | inhibition (TNFα) [%]
COc1cc(-c2sc3nc(-c4nccn4C)nc(N[C@@H]4CC[C@H](OC)C4)c3c2-c2ccccc2)ccn1 (racemic) [Compound 44, rac-N-((1R,3S)-3-Methoxycyclopentyl)-6-(2-methoxypyridin-4-yl)-2-(1-methyl-1H-imidazol-2-yl)-5-phenylthieno[2,3-d]pyrimidin-4-amine] | 76 to 100 | D (D = 76-100% inhibition) | C (C = 46-75% inhibition) | C (C = 46-75% inhibition) | C (C = 46-75% inhibition) | D (D = 76-100% inhibition) | D (D = 76-100% inhibition) | D (D = 76-100% inhibition) | B (B = 26-45% inhibition) | 0 (0 = 0% inhibition) | – | –
COc1cc(-c2sc3nc(-c4nccn4C)nc(N[C@@H]4CC[C@@H](OC)C4)c3c2-c2ccccc2)ccn1 (racemic) [Compound 47, N-((1R,3R)-3-Methoxycyclopentyl)-6-(2-methoxypyridin-4-yl)-2-(1-methyl-1H-imidazol-2-yl)-5-phenylthieno[2,3-d]pyrimidin-4-amine] | 76 to 100 | D (D = 76-100% inhibition) | D (D = 76-100% inhibition) | D (D = 76-100% inhibition) | D (D = 76-100% inhibition) | C (C = 46-75% inhibition) | C (C = 46-75% inhibition) | D (D = 76-100% inhibition) | C (C = 46-75% inhibition) | C (C = 46-75% inhibition) | – | –
COc1cccc(Nc2nc(-c3nccn3C)nc3sc(-c4ccn(C(C)C)n4)c(C)c23)n1 [Compound 18, 6-(1-Isopropyl-1H-pyrazol-3-yl)-N-(6-methoxypyridin-2-yl)-5-methyl-2-(1-methyl-1H-imidazol-2-yl)thieno[2,3-d]pyrimidin-4-amine] | – | C (C = 46-75% inhibition) | C (C = 46-75% inhibition) | C (C = 46-75% inhibition) | C (C = 46-75% inhibition) | D (D = 76-100% inhibition) | D (D = 76-100% inhibition) | C (C = 46-75% inhibition) | C (C = 46-75% inhibition) | D (D = 76-100% inhibition) | 26 to 45 | 0
COCCOCCNc1nc(-c2nccn2C)nc2sc(-c3ccn(C(C)C)n3)c(C)c12 [Compound 21, 6-(1-Isopropyl-1H-pyrazol-3-yl)-N-(2-(2-methoxyethoxy)ethyl)-5-methyl-2-(1-methyl-1H-imidazol-2-yl)thieno[2,3-d]pyrimidin-4-amine] | – | D (D = 76-100% inhibition) | D (D = 76-100% inhibition) | D (D = 76-100% inhibition) | D (D = 76-100% inhibition) | D (D = 76-100% inhibition) | D (D = 76-100% inhibition) | D (D = 76-100% inhibition) | C (C = 46-75% inhibition) | D (D = 76-100% inhibition) | 46 to 75 | 1 to 25
COc1cccc(-c2sc3nc(-c4nccn4C)nc(N[C@H]4C[C@H](OC)C4)c3c2C)c1F [Compound 42, 6-(2-Fluoro-3-methoxyphenyl)-N-((1r,3r)-3-methoxycyclobutyl)-5-methyl-2-(1-methyl-1H-imidazol-2-yl)thieno[2,3-d]pyrimidin-4-amine] | – | D (D = 76-100% inhibition) | D (D = 76-100% inhibition) | D (D = 76-100% inhibition) | D (D = 76-100% inhibition) | B (B = 26-45% inhibition) | B (B = 26-45% inhibition) | D (D = 76-100% inhibition) | C (C = 46-75% inhibition) | C (C = 46-75% inhibition) | 46 to 75 | 0
COc1nccc(-c2sc3nc(-c4nccn4C)nc(N[C@H]4C[C@H](OC)C4)c3c2-c2ccccc2)c1F [Compound 45, 6-(3-Fluoro-2-methoxypyridin-4-yl)-N-((1r,3r)-3-methoxycyclobutyl)-2-(1-methyl-1H-imidazol-2-yl)-5-phenylthieno[2,3-d]pyrimidin-4-amine] | 76 to 100 | D (D = 76-100% inhibition) | C (C = 46-75% inhibition) | C (C = 46-75% inhibition) | C (C = 46-75% inhibition) | C (C = 46-75% inhibition) | C (C = 46-75% inhibition) | D (D = 76-100% inhibition) | B (B = 26-45% inhibition) | C (C = 46-75% inhibition) | – | –
